Results from patent US10947270B2, “Targeted prodrug cytosine deaminase fusion carrier and application thereof” (National Yang-Ming University, priority 2015, dated 2021).

Tests used:
[1] = tested on: U87MG, HUVEC and MCF-7 cells; assay: MTT cytotoxic test of EcCD series, statements for several cells; assay type: cell-based, human; settings: 5-FC alone
Method: (§1) Relative cell viability was measured by MTT assay. The 50 nM EcCD series fusion protein is applied to U87MG, HUVEC and MCF-7 cells at 37° C. for 2 hours, after washing the unbound protein with PBS.

[2] = tested on: HUVEC, U87MG and MCF-7 cells; assay: MTT cytotoxicity assay of yCD series, statements for all three cells; assay type: cell-based, human; settings: 5-FC alone
Method: (§2) The cell viability was determined by MTT assay. The seeded HUVEC cells shown in FIG. 7A, the seeded U87MG cells shown in FIG. 7B and the 96 wells of seeded MCF-7 cells shown in FIG. 7C are respectively added with 500 nM RGD4C-yCD, yCD, RGD4C-yCD/UPRT and yCD/UPRT recombinant protein, after removing the recombinant protein not bound with the cells and washing the cells, add 5-FC with different concentrations and observe the cell killing effect. Cells of the control groups were only incubated with different concentrations of 5-FU or 5-FC without protein treatment.
(§3) In this experiment, the MTT assay is applied to measure cytotoxicity induced by RGD4C-yCD/5-FC and RGD4C-yCD/UPRT/5-FC of the targeted prodrug enzyme fusion protein. In 96-well plate of seeded cells is respectively added with recombinant proteins such as 500 nM RGD4C-yCD, yCD, RGD4C-yCD/UPRT and yCD/UPRT, and co-cultured at 37° C. for 2 hours. The recombinant proteins not bound with cells are discarded. The cells were washed, and then were treated with different concentrations of 5-FC for observing the effect of cytotoxicity. On the other hand, the cells only treated with different concentrations of 5-FC and 5-FU separately as the control group.

[3] = tested on: HUVEC cells; assay: MTT cytotoxic test of EcCD series fusion protein (50 nM) coupled with 5-FC; assay type: cell-based, human; settings: 5-FU alone
Method: as §1

[4] = tested on: MCF-7 cells; assay: as above; assay type: cell-based; settings: Homo sapiens, MCF7, 5-FU alone, 72 hours
Method: as §1

[5] = tested on: U87MG cells; assay: as above; assay type: cell-based; settings: Homo sapiens, U-87 MG, 5-FU alone, 72 hours
Method: as §1

[6] = tested on: HUVEC and U87MG cells; assay: TUNEL apoptosis assay of yCD series fusion protein combined with 5-FC; assay type: cell-based, human; settings: 500 nM protein, 100 μM 5-FC or 5-FU, 72 hours
Method: FIGS. 9A-9D show the cell apoptosis assay of the yCD series fusion protein combined with 5-FC in HUVEC and U87MG cells. […] And then TUNEL assay kit was used to detect the cell apoptosis (red signal: DNA fragment detected by TUNEL assay kit; blue signal: Hoechst 33342 cell nuclear stain). Cells of the control groups were only incubated with different concentrations of 5-FU or 5-FC without protein treatment. […] (*P value<0.05; Calibration scale: 20 μm)
Previous literature pointed out that 5-FU can promote apoptosis by inhibiting the synthesis of cellular DNA. This experiment is performed on apoptosis analysis to evaluate whether the enzyme precursor treatment system of RGD4C-yCD/5-FC and RGD4C-yCD/UPRT/5-FC can kill the cells by apoptotic mechanism. HUVEC and U87MG cells are co-cultured with culture medium containing 500 nM RGD4C-yCD and RGD4C-yCD/UPRT protein for 2 hours at 37° C., remove and wash the unbound or endocytic proteins, add 100 μM 5-FC or 5-FU, after acting for 72 hours, the DNA fragment of the apoptosis is stained with fluorescence by TUNEL assay analysis set, and the apoptosis is observed by conjugated fluorescence microscope. […] Furtherly, TUNEL fluorescence signals are quantified by image analysis software MetaMorph. […]

[7] = tested on: MCF-7 cells; assay: MTT cytotoxicity assay of yCD series protein combined with 5-FC; assay type: cell-based, human
Method: as §2, §3

[8] = tested on: HUVEC cells; assay: as above; assay type: cell-based; settings: Homo sapiens, 5-FU alone
Method: as §2, §3

[9] = tested on: U87MG cells; assay: as above; assay type: cell-based; settings: Homo sapiens, U-87 MG, 5-FU alone
Method: as §2, §3

Compound	survival rate [1]	cytotoxic ability [2]	IC50 ([3]; 72 hours)	IC50 ([3]; Homo sapiens, 72 h)	IC50 [4]	IC50 [5]	apoptosis (TUNEL, words) [6]	IC50 ([7]; 5-FU alone)	IC50 ([7]; Homo sapiens, MCF7, 5-FU alone)	IC50 [8]	IC50 [9]
Nc1nc(=O)[nH]cc1F [5-FC, 5-fluorocytosine]	~100%	not significant cytotoxic ability									
O=c1[nH]cc(F)c(=O)[nH]1 [5-FU, 5-fluorouracil]			6.2 ± 1.3 µM	6.5 ± 1.3 µM	25.6 ± 0.3 µM	6.5 ± 0.2 µM	a large amount of apoptosis	2.2 ± 0.3 µM	2.1 ± 0.3 µM	1.6 ± 0.2 µM	1.6 ± 0.3 µM
